Measurements: patent publication EP0226475A1, “Diphenoxyethyl amine derivatives, process for their preparation and pharmaceutical compositions containing them” (Albert ROLLAND S.A. Société dite, priority 1985, dated 1987)

Assays:
Type in all cases: in vivo
5-HT (Sérotonine) uptake = 5-HT (Sérotonine) uptake (Rattus norvegicus, UniProt P31652); assay: Uptake "ex vivo" of 5-HT; conditions: dose not given, N.S. = not significant
Description: (§1) Activité sur les tests d'inhibition ou de recapture des principaux médiateurs adrénergiques.
(§2) Les résultats obtenus en comparaison avec ceux des antidépresseurs classiques sont rassemblés dans le tableau II: […]

DA (Dopamine) uptake = DA (Dopamine) uptake (Rattus norvegicus, UniProt P23977); assay: Uptake "ex vivo" of DA; conditions: dose not given
Description: as §1, §2

[1] = biological target: NAd (Nor adrénaline) uptake (Rattus norvegicus, UniProt Q63380); assay: Uptake "ex vivo" of NAd; conditions: dose not given
Description: as §1

CN(C)CC(Oc1ccccc1)Oc1ccccc1 [MEDIFOXAMINE]
inactif: UPTAKE "EX VIVO" % d'inhibition 5-HT (5-HT (Sérotonine) uptake) | UPTAKE "EX VIVO" % d'inhibition DA (DA (Dopamine) uptake) | UPTAKE "EX VIVO" % d'inhibition NAd [1]
